Assay results from article PMC6256351, “Stereoselective Synthesis of the Isomers of Notoincisol A: Assigment of the Absolute Configuration of this Natural Product and Biological Evaluation” (Journal of Natural Products, 2018).

Target: T1, PPARγ (peroxisome proliferator-activated receptor gamma) (Homo sapiens, UniProt P37231)
T1 construct: gene PPARG; full-length human PPARγ
T1 sequence (P37231 1-505): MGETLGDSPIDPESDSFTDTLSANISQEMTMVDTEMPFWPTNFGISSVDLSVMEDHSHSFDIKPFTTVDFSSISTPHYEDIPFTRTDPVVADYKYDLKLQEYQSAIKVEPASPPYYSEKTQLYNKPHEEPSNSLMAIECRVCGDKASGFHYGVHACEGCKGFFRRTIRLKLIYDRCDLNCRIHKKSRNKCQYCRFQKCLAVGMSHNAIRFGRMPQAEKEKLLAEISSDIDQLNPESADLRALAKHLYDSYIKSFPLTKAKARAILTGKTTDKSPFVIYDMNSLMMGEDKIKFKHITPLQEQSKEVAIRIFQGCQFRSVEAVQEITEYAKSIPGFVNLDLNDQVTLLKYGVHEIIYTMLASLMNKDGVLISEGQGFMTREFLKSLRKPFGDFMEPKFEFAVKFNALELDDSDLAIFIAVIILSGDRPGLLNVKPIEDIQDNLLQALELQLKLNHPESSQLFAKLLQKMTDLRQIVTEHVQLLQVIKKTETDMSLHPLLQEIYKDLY
Assay: luciferase reporter gene transactivation in HEK293 cells transfected with PPARγ
Format: cell-based

C=C[C@@H](O)C#CC#C[C@H](/C=C\CCCCCCC)OC(=O)/C=C/c1ccc(O)c(OC)c1 [3R,8S-1, (3R,8S)-Notoincisol A]
EC50: 1200 nM
